Laboratory results as given in PMC8645336, “Benchmarking a highly selective USP30 inhibitor for enhancement of mitophagy and pexophagy” (Life Science Alliance, 2021).

Key:
Cezanne = target: T1, Cezanne (Homo sapiens, UniProt Q6GQQ9); assay: biochemical; design: Ubiquigent DUB profiler selectivity panel, remaining enzyme activity as % of control; conditions: read-out: % of control remaining
T1 construct: gene OTUD7B
T1 sequence (Q6GQQ9 1-843): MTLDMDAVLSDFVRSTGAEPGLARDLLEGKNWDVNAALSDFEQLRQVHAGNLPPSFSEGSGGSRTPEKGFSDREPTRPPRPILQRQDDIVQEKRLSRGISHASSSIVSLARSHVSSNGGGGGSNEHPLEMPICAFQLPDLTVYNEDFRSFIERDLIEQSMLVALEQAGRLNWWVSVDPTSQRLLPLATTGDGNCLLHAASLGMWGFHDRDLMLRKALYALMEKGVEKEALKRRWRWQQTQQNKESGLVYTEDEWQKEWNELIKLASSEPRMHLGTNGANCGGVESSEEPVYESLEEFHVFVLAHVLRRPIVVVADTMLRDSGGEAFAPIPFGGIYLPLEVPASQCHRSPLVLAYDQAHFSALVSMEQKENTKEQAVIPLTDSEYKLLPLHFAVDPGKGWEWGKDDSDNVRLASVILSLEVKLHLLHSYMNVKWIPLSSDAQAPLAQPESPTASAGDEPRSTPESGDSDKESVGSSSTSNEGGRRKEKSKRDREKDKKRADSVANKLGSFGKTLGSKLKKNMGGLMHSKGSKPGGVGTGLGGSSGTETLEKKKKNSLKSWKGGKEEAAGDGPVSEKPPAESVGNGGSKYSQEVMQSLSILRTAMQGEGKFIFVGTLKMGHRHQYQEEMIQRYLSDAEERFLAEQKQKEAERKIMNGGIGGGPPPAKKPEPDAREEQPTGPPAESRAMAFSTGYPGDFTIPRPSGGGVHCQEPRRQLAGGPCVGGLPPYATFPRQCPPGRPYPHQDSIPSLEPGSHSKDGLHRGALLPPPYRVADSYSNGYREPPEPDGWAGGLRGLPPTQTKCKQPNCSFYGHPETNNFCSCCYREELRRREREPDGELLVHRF
Procedure, shortened: (§1)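 CMPD-39 selectivity was profiled at 1-100 μM across >40 DUBs. Cellular engagement used 2 h CMPD-39 pretreatment, then HA-Ub-PA probe for 10 min at 37°C, with USP30 band shift on immunoblot. TOMM20 ubiquitylation was blotted in YFP-PRKN hTERT-RPE1 cells after 1 h antimycin A/oligomycin A (1 μM each).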

USP4 = target: T2, USP4 (Homo sapiens, UniProt Q13107); assay: biochemical; design: Ubiquigent DUB profiler selectivity panel, remaining enzyme activity as % of control; conditions: read-out: % of control remaining
T2 sequence (Q13107 1-963): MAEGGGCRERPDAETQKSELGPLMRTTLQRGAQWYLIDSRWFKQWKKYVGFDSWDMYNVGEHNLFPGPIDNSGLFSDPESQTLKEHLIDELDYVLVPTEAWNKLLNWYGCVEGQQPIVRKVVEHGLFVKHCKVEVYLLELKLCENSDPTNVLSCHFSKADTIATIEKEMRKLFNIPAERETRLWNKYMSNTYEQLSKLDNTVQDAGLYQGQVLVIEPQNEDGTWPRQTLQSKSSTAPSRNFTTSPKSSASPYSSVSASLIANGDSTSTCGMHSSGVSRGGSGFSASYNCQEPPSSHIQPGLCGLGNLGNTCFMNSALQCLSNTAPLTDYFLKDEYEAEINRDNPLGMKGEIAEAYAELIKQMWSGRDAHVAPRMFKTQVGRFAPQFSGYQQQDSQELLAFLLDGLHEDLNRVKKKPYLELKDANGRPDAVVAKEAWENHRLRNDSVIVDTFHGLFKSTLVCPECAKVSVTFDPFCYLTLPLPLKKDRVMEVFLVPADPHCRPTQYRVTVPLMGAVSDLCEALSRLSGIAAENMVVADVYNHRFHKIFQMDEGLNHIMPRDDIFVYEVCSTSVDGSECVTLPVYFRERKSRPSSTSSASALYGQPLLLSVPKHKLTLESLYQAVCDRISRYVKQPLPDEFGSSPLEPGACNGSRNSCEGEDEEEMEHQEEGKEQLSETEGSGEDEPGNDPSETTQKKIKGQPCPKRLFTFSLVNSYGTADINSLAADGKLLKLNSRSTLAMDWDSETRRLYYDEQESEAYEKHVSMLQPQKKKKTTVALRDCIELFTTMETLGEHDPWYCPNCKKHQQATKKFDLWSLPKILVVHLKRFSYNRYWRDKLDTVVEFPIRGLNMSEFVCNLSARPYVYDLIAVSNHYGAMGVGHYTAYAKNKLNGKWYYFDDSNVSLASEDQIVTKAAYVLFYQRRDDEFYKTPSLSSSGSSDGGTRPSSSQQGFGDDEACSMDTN
Procedure, shortened: as §1

remaining activity at 1 µM (Cezanne): 98.7%
remaining activity at 10 µM (Cezanne): 98.8%
remaining activity at 100 µM (Cezanne): 94.4%
remaining activity at 1 µM (USP4): 107%
remaining activity at 10 µM (USP4): 103%
remaining activity at 100 µM (USP4): 98.9%
Compound: CC(C)(C)NS(=O)(=O)c1ccc(NC(=O)[C@H](Cc2ccccc2)NC(=O)c2ccc(F)cc2)cc1 [compound 39, CMPD-39]
